Where two headings read alike, the source gives them in different places.
What was measured:
[1] = system: spontaneously hypertensive rats (SHR); parameters: method as in PMID 37446639; details: cited from earlier work
[2] = Stability in rat urine, feces and bile matrices (QC samples); type: in vitro ADME
Experimental: The stability of 221s (2,9) in rat urine, feces, and bile matrices was evaluated using QC samples at three concentration levels (10, 1000, and 1600 ng/mL) across six replicates under four conditions per matrix: three freeze–thaw cycles, short-term storage (room temperature, 2 h), long-term storage (−80 °C, 30 days), and autosampler rack storage (4 °C, 24 h). Stability was quantified by comparing post-storage concentrations (normalized to freshly prepared QC samples analyzed in the same batch) with nominal values, with deviations ≤15% considered acceptable. Dilution reliability was assessed by 5-fold dilution of QC samples (1000/1600 ng/mL) in each matrix using blank rat plasma. Dilution accuracy was verified by comparing measured concentrations (post-dilution factor correction) to nominal values, with acceptable criteria defined as ≤15% relative error (RE) and ≤15% relative standard deviation (RSD).

[3] = system: angiotensin II (Ang II) and angiotensin-converting enzyme (ACE); parameters: method as in PMID 37446639; details: SHR; cited from earlier work
[4] = system: spontaneously hypertensive rats (SHR); assay: Serum creatinine and renal NOX2 expression in SHR; type: in vivo, rat
mice = system: mice; parameters: method as in doi:10.19803/j.1672-8629.20220529; details: cited from earlier work
ACE = ACE content in murine serum, cerebral tissue and renal compartments (preliminary data); type: in vivo; details: cerebral tissue, renal compartments
[5] = Excretion study of unchanged drug in urine, feces and bile after oral administration (UPLC-MS/MS); type: in vivo, Sprague-Dawley rats; details: 30 mg/kg oral; for dose excreted: male, Sprague-Dawley, rat, at 72 h
Experimental: According to previous data, analytical separation was performed using an ultra-performance liquid chromatography-tandem mass spectrometry (UPLC-MS/MS) platform comprising a Waters ACQUITY UPLC H-Class (Waters, Milford, CT, USA) system coupled to an AB Sciex Triple Quad 6500 mass spectrometer (AB Sciex, Boston, MA, USA). Chromatographic resolution was achieved on a Waters ACQUITY UPLC BEH C18 column (1.7 μm, 2.1 × 50 mm) maintained at 40 °C. The mobile phase system incorporated two components: solvent A (0.02% formic acid and 5 mM NH4F in deionized water) and solvent B (acetonitrile), delivered at 0.2 mL/min with a 10 μL injection volume. The gradient program was configured as follows: 55% solvent A (0.0–0.6 min), 5% solvent A (0.6–2.5 min), followed by re-equilibration at 55% solvent A (2.5–5.0 min).
Mass spectrometric detection utilized positive electrospray ionization (ESI+) in MRM mode, monitoring precursor-to-product ion transitions at m/z 525.1→389.1 (221s (2,9)) and 357.0→220.9 (IS). Instrument parameters were optimized as follows: curtain gas 25 psi, ion source temperature 500 °C, GS1/GS2 pressures 50/40 psi, ion spray voltage 5 kV, and collision gas pressure 10 psi. Compound-dependent parameter settings included decluttering potential (DP), entrance potential (EP), collision cell exit potential (CXP), and collision energy (CE) of 160/10/5/63 V for 221s (2,9) and 70/10/5/20 V for IS. Data processing was executed using Analyst software (v1.6.3).
Six male Sprague-Dawley (SD) rats aged 8–10 weeks (body weight: 220–250 g) were individually housed in metabolic cages. Following a 12 h fasting period with free access to water, baseline urinary and fecal samples were collected as blank controls prior to drug administration. Samples of urine and feces were collected from 0–4 h, 4–8 h, 8–12 h, 12–24 h, 24–36 h, 36–48 h, 48–60 h, 60–72 h, and 72–84 h post-administration of 221s (2,9) with an oral dosage of 30 mg/kg. Urine samples were quantitatively measured for volume before storage at −80 °C while fecal samples were dried, pulverized, and weighed prior to preservation at −80 °C.
Six male SD rats were fasted for 12 h prior to drug administration, with free access to water. After being anesthetized with isoflurane, the rats were positioned supine on surgical platforms for common bile duct cannulation. Blank bile samples were collected following stabilization of bile flow. Following oral gavage of 30 mg/kg 221s (2,9), bile samples were sequentially collected during 0–2 h, 2–4 h, 4–8 h, 8–12 h, 12–24 h, 24–36 h, 36–48 h, and 48–72 h intervals. All biliary specimens were volumetrically measured and cryopreserved at −80 °C for subsequent analysis. Hydration maintenance was ensured through intraperitoneal administration of physiological saline during experimental procedures.
A total of 10 μL of IS (1 μg/mL) was added to each urinary sample (100 μL), followed by the addition of three volumes of acetonitrile. The mixtures were vortexed and centrifuged twice. Then, the supernatants were concentrated, lyophilized and reconstituted in 100 μL of acetonitrile. The supernatants were subjected to instrumental analysis after final centrifugation.
Fecal samples (100 mg) were homogenized with three volumes of saline via ultrasonication for 10 min. Then, 10 μL of IS (1 μg/mL) was added, before adding three volumes of acetonitrile. […] After vortexing and dual centrifugation, the supernatant was concentrated, lyophilized, and reconstituted in 100 μL of acetonitrile. The supernatants were subjected to instrument for analysis after final centrifugation.
Biliary samples (100 μL) were precisely aliquoted and added with 10 μL IS (1 μg/mL). Following homogenization, three volumes of acetonitrile were added to precipitate impurities. After vortexing and centrifuging twice, the supernatant was concentrated, lyophilized, and reconstituted in 100 μL of acetonitrile. […]

[6] = parameters: method as in PMID 23607051; details: cited from earlier work

In the case of CC(NC(=O)C(O)Cc1ccc(O)c(O)c1)C(=O)N1CCCC1C(=O)OC1CC2CCC1(C)C2(C)C (stereo not drawn) [221s (2,9)], the “antihypertensive efficacy compared with captopril” value [1] is listed as “comparable to that of captopril”, the “reduction of diastolic blood pressure” value [1] is listed as 35 mmHg and the “reduction of systolic blood pressure” value [1] is listed as 50 mmHg. The “Stability RE (%)” value ([2]; bile, autosampler rack (4 °C) for 24 h, spiked 10 ng/mL) was −4.4%, the “Stability RE (%)” value ([2]; bile, autosampler rack (4 °C) for 24 h, spiked 1000 ng/mL) was −3.2% and the “Stability RE (%)” value ([2]; bile, autosampler rack (4 °C) for 24 h, spiked 1600 ng/mL) was −3.8%. The “Stability RE (%)” value ([2]; bile, room temperature for 2 h, spiked 10 ng/mL) was −5.2%, the “Stability RE (%)” value ([2]; bile, room temperature for 2 h, spiked 1000 ng/mL) was −4.5% and the “Stability RE (%)” value ([2]; bile, room temperature for 2 h, spiked 1600 ng/mL) was 5.1%. For the same compound, the “Stability RE (%)” value ([2]; bile, three freeze/thaw cycles, spiked 10 ng/mL) was −8.4%, the “Stability RE (%)” value ([2]; bile, three freeze/thaw cycles, spiked 1000 ng/mL) was −4.1% and the “Stability RE (%)” value ([2]; bile, three freeze/thaw cycles, spiked 1600 ng/mL) was 4.2%. The “Stability RE (%)” value ([2]; bile, −80 °C for 30 days, spiked 10 ng/mL) was −3.1%, the “Stability RE (%)” value ([2]; bile, −80 °C for 30 days, spiked 1000 ng/mL) was 1.5% and the “Stability RE (%)” value ([2]; bile, −80 °C for 30 days, spiked 1600 ng/mL) was 3.4%. For the same compound, the “Stability RE (%)” value ([2]; feces, autosampler rack (4 °C) for 24 h, spiked 10 ng/mL) was −4.9%, the “Stability RE (%)” value ([2]; feces, autosampler rack (4 °C) for 24 h, spiked 1000 ng/mL) was −2.2% and the “Stability RE (%)” value ([2]; feces, autosampler rack (4 °C) for 24 h, spiked 1600 ng/mL) was 4.6%. For the same compound, the “Stability RE (%)” value ([2]; feces, room temperature for 2 h, spiked 10 ng/mL) was −6.7%, the “Stability RE (%)” value ([2]; feces, room temperature for 2 h, spiked 1000 ng/mL) was −3.6% and the “Stability RE (%)” value ([2]; feces, room temperature for 2 h, spiked 1600 ng/mL) was −4.7%. The “Stability RE (%)” value ([2]; feces, three freeze/thaw cycles, spiked 10 ng/mL) was −5.3%, the “Stability RE (%)” value ([2]; feces, three freeze/thaw cycles, spiked 1000 ng/mL) was −4.8% and the “Stability RE (%)” value ([2]; feces, three freeze/thaw cycles, spiked 1600 ng/mL) was −3.2%. The “Stability RE (%)” value ([2]; feces, −80 °C for 30 days, spiked 10 ng/mL) was −6.4%, the “Stability RE (%)” value ([2]; feces, −80 °C for 30 days, spiked 1000 ng/mL) was −5.3% and the “Stability RE (%)” value ([2]; feces, −80 °C for 30 days, spiked 1600 ng/mL) was 2.8%. The “degradation in urinary/fecal/biliary samples” value ([2]; room temperature 2 h, three freeze-thaw cycles, −80 °C 30 days, 4 °C autosampler 24 h) was “no significant degradation”, the “Stability RE (%)” value ([2]; urine, autosampler rack (4 °C) for 24 h, spiked 10 ng/mL) was −7.3% and the “Stability RE (%)” value ([2]; urine, autosampler rack (4 °C) for 24 h, spiked 1000 ng/mL) was −6.3%. For the same compound, the “Stability RE (%)” value ([2]; urine, autosampler rack (4 °C) for 24 h, spiked 1600 ng/mL) was 3.9%, the “Stability RE (%)” value ([2]; urine, room temperature for 2 h, spiked 10 ng/mL) was −12.5% and the “Stability RE (%)” value ([2]; urine, room temperature for 2 h, spiked 1000 ng/mL) was −1.5%. The “Stability RE (%)” value ([2]; urine, room temperature for 2 h, spiked 1600 ng/mL) was 3.4%, the “Stability RE (%)” value ([2]; urine, three freeze/thaw cycles, spiked 10 ng/mL) was −9.4% and the “Stability RE (%)” value ([2]; urine, three freeze/thaw cycles, spiked 1000 ng/mL) was −6.4%. For the same compound, the “Stability RE (%)” value ([2]; urine, three freeze/thaw cycles, spiked 1600 ng/mL) was −2.6%, the “Stability RE (%)” value ([2]; urine, −80 °C for 30 days, spiked 10 ng/mL) was −8.7% and the “Stability RE (%)” value ([2]; urine, −80 °C for 30 days, spiked 1000 ng/mL) was −5.4%. For the same compound, the “Stability RE (%)” value ([2]; urine, −80 °C for 30 days, spiked 1600 ng/mL) was −5.5%, the “serum level of angiotensin II (Ang II)” value [3] was “significantly reduced” and the “serum level of angiotensin-converting enzyme (ACE)” value [3] was “significantly reduced”. The “decrease of serum creatinine level” value ([4]; p < 0.01) was 38.99%, the “downregulation of renal NOX2 expression” value ([4]; p < 0.05) was 16.23% and the “effects on body weight, dietary intake, histopathological parameters of liver, lungs and kidneys” value (mice; at 3000 mg/kg oral gavage) was “no substantial effects”. The acute toxicity (mice; oral gavage) was “no significant acute toxicity”, the maximum tolerated dose (mice; oral gavage) was 3000 mg/kg and the ACE content (ACE) was “reduces ACE content”. For the same compound, the cumulative fecal output ([5]; feces, at 48 h, rats, unchanged drug) was 36,726.31 ± 5507 ng, the fecal excretion rate ([5]; feces, between 4 and 8 h, rats, unchanged drug) was 7994.29 ± 953.75 ng/h and the dose excreted ([5]; bile, bile duct cannulated rats, read-out: recovery of unchanged drug in bile (accumulative excretion rate, % of administered dose)) was 0.00044 ± 2e-05%. For the same compound, the dose excreted ([5]; feces, rats, read-out: recovery of unchanged drug in feces (accumulative excretion rate, % of administered dose)) was 0.73 ± 0.069%, the dose excreted ([5]; urine, rats, read-out: recovery of unchanged drug in urine (accumulative excretion rate, % of administered dose)) was 0.02 ± 0.021% and the “total recovery of unchanged drug across all matrices (% of administered dose)” value ([5]; urine + feces + bile, over 72 h, rats) was “below 1%”. The “peak urinary excretion rate” value ([5]; urine, at 8 h post-dosing, rats, unchanged drug) was 138.81 ± 15.56 ng/h and the cumulative urinary excretion ([5]; urine, plateau by 48 h, rats, unchanged drug) was 1479.81 ± 155.7 ng.
For CC1(C)C2CCC1(C)C(OC(=O)c1cc(O)c(O)c(O)c1)C2 (stereo not drawn) [bornyl gallate], the tissue distribution [6] is listed as “pronounced renal accumulation alongside measurable brain distribution”.

From paper PMC12389711, “Study on the Excretion of a New Antihypertensive Drug 221s (2,9) in Rats” (Pharmaceuticals, 2025)
